This series is described as follows: Tissue half-life (t1/2) and Cmax in plasma, brain, kidney and liver after oral administration to CD-1 mice. The class given is in vivo. As to conditions: 30 mg/kg oral gavage; for half-life: male, mouse. Here is the method:
In vivo studies were conducted to observe the effect of the compounds of formula IA, IB, IIA, and IIIB in the subject animal. Male CD-1 mice, body weight of 20 grams at arrival, were used in these studies. Mice were given 30 mg/kg of compound in HPMC/Tween solution or suspension via oral gavage. Plasma, brain, and liver samples were collected at time periods of 1, 2, 4, 8, and 24 hours post dosing. One mouse was used per time point. Thus, a total of 5 mice were used for each compound tested. For sample collection, mice were euthanized with CO2. Blood samples were taken by cardiac puncture and kept on ice. Brain and liver samples were collected immediately after bleeding and the samples were kept on dry ice. For calculation of tissue half-lives (t1/2s), the terminal rate constant k was estimated by the absolute value of the slope of a log-linear regression of the terminal phase of the tissue concentration-time profile. The tissue half-life t1/2 is In(2)/k.
The following table includes t1/2 data for plasma, brain, kidney, and liver obtained after oral administration.

Where [1] appears, read: brain, read-out: Tissue Half-Lives, Brain (converted).
[2] abbreviates: liver, read-out: Tissue Half-Lives, Liver (converted).
Where [3] appears, read: plasma, read-out: Tissue Half-Lives, Plasma (converted).

Like-named read-outs stand apart in the source and are kept apart here.

These results are taken from patent US7625909B2, “Substituted quinazolinone compounds” (Novartis Vaccines and Diagnostics, Inc., priority 2003, dated 2009).

On to `COc1ccc(CCn2c(NC3CC3)nc3cc(NC(=N[C@H]4C[C@H]5C[C@@H]([C@@H]4C)C5(C)C)N4CC(=O)N[C@@H](C)C4)ccc3c2=O)c(F)c1` [Example 224, (3S)-N-{2-(cyclopropylamino)-3-[2-(2-fluoro-4-methoxyphenyl)ethyl]-4-oxo-3,4-dihydroquinazolin-7-yl}-3-methyl-5-oxo-N′-[(1S, 2S, 3S, 5R)-2,6,6-trimethylbicyclo[3.1.1]hept-3-yl]piperazine-1-carboximidamide], for which the “Tissue Half-Lives, Liver” value (liver) is given as 3.1 h. On to `COc1ccc(CCn2c(-c3cccnc3)nc3cc(N/C(=N/C4C[C@H]5C[C@@H]([C@@H]4C)C5(C)C)N4CCN(C#N)[C@@H](C)C4)ccc3c2=O)c(F)c1` (stereo partly drawn) [Example 246, (3S)-4-cyano-N-{3-[2-(2-fluoro-4-methoxyphenyl)ethyl]-4-oxo-2-pyridin-3-yl-3,4-dihydroquinazolin-7-yl}-3-methyl-N-[(1S, 2S, 3S, 5R)-2,6,6-trimethylbicyclo[3.1.1]hept-3-yl]piperazine-1-carboximidamide], for which the “Tissue Half-Lives, Brain” value (brain) is 5.8 h.

In the case of `C[C@@H]1[C@@H](N=C(Nc2ccc3c(=O)n(CCc4ccc(Cl)cc4)c(C4CCCNC4)nc3c2)N2CC(=O)N[C@@H](C)C2)C[C@H]2C[C@@H]1C2(C)C` (stereo partly drawn) [Example 241, (3S)-N-{3-[2-(4-chlorophenyl)ethyl]-4-oxo-2-piperidin-3-yl-3,4-dihydroquinazolin-7-yl}-3-methyl-5-oxo-N′-[(1S, 2S, 3S, 5R)-2,6,6-trimethylbicyclo[3.1.1]hept-3-yl]piperazine-1-carboximidamide], the half-life was 51 h under setting [1], 17 h under setting [2] and 21 h under setting [3]. As for `COc1ccc(CCn2c(C#N)nc3cc(NC(=NC4C[C@H]5C[C@@H]([C@@H]4C)C5(C)C)N4CCN[C@@H](CF)C4)ccc3c2=O)c(F)c1` (stereo partly drawn) [Example 256, (3R)-N-{2-cyano-3-[2-(2-fluoro-4-methoxyphenyl)ethyl]-4-oxo-3,4-dihydroquinazolin-7-yl}-3-(fluoromethyl)-N′-[(1S, 2S, 5R)-2,6,6-trimethylbicyclo[3.1.1]hept-3-yl]piperazine-1-carboximidamide], the half-life by setting is: under setting [1], 15 h; under setting [2], 4.3 h; under setting [3], 5.4 h. In the case of `COc1ccc(CCn2c(-c3cccnc3)nc3cc(N/C(=N/[C@H]4C[C@@H]5C[C@H]([C@@H]4C)C5(C)C)N4C[C@@H](C)N(O)[C@@H](C)C4)ccc3c2=O)c(F)c1` [Example 296, (3R, 5S)-N-[3-{2-[2-fluoro-4-(methyloxy)phenyl]eth-yl}-4-oxo-2-(3-pyridinyl)-3,4-dihydro-7-quinazolinyl]-4-hydroxy-3,5-dimethyl-N′-[(1R, 2S, 3S, 5S)-2,6,6-trimethylbicyclo[3.1.1]hept-3-yl]-1-piperazinecarboximida-mide], the “Tissue Half-Lives, Kidney” value came out at 3.3 h.

`C[C@@H]1[C@@H](/N=C(/Nc2ccc3c(=O)n(CCc4ccc(Cl)cc4Cl)cnc3c2)N2CCNC(=O)C2)C[C@@H]2C[C@H]1C2(C)C` [Example 260, N-{3-[2-(2,4-dichlorophenyl)ethyl]-4-oxo-3,4-dihydroquinazolin-7-yl}-3-oxo-N′-[(1R, 2S, 3S, 5S)-2,6,6-trimethylbicyclo[3.1.1]hept-3-yl]piperazine-1-carboximidamide]: the “Tissue Half-Lives, Kidney” value came out at 7.3 h.
